Read-outs that look alike come from different tables or passages of the source.
Key:
[1] = biological target: T1, human 5-HT1D receptor (Homo sapiens, UniProt P28221); experiment: Radioligand binding (saturation and competition), WT 5-HT1D
T1 construct: host or cells: HEK293T

[2] = biological target: T2, human 5-HT1F receptor (Homo sapiens, UniProt P30939); experiment: Radioligand binding (saturation and competition), WT 5-HT1F
T2 construct: host or cells: HEK293T
T2 sequence (P30939 1-366): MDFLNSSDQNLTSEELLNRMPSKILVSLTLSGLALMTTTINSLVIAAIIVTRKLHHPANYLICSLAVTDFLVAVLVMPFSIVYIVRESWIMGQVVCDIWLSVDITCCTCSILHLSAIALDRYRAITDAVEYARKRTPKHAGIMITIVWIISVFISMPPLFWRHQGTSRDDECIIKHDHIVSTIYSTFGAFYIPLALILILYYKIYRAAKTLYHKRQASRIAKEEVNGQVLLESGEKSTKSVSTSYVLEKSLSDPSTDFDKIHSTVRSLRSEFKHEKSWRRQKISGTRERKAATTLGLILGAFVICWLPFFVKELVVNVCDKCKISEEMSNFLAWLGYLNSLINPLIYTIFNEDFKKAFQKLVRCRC

[3] = biological target: T3, human 5-HT1A receptor (Homo sapiens, UniProt P08908); experiment: cAMP accumulation (LANCE Ultra TR-FRET) in HEK293T cells, WT 5-HT1A; format: cell-based; conditions: for EC50: cAMP accumulation, HEKt cells, mean ± SD; for Emax: HEK-293T
T3 construct: host or cells: HEK293T
T3 sequence (P08908 1-422): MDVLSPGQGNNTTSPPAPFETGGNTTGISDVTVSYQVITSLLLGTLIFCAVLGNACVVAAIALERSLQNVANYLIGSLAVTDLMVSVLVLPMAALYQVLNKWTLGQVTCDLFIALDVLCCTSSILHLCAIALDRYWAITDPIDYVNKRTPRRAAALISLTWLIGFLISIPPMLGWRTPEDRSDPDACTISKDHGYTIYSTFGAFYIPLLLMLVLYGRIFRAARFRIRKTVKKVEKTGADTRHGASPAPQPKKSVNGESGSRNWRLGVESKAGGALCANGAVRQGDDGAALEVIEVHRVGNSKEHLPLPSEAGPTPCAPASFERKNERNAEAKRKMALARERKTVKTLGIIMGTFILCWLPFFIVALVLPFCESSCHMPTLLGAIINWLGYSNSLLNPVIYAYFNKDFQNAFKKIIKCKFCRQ
Method: (§1) Briefly, cells transfected with the desired receptor construct and compounds were incubated in the dark for 90 min at 37 °C. After incubation, cAMP detection reagents were added, and TR-FRET was used to quantify the cAMP produced.
(§2) The functional activity of compounds was determined by stimulating cells expressing the desired receptor with FSK and test compound in parallel with 12 known concentrations of cAMP. The known concentrations of cAMP were used to create a standard curve for each experiment that was used to interpolate the unknown values of cAMP in wells with test compounds. […] The EC50 and EMAX values were determined using the “dose response – log[agonist] vs response (three parameter)” nonlinear regression model in Prism and transformed to pEC50 values, reported as mean ± SD.
(§3) Summary of functional assay conditions at various 5-HT1 receptor point mutation constructs.

[4] = biological target: T1, human 5-HT1D receptor; experiment: cAMP accumulation (LANCE Ultra TR-FRET) in HEK293T cells, WT 5-HT1D; format: cell-based; conditions: for EC50: cAMP accumulation, HEKt cells, mean ± SD; for Emax: HEK-293T
Method: as §1, §2, §3

[5] = biological target: T4, human 5-HT1B receptor (Homo sapiens, UniProt P28222); experiment: cAMP accumulation (LANCE Ultra TR-FRET) in HEK293T cells, WT 5-HT1B; format: cell-based; conditions: for EC50: cAMP accumulation, HEKt cells, mean ± SD; for Emax: HEK-293T
T4 construct: host or cells: HEK293T
Method: as §1, §2, §3

[6] = biological target: T3, human 5-HT1A receptor; experiment: Radioligand binding (saturation and competition), WT 5-HT1A
[7] = biological target: T4, human 5-HT1B receptor; experiment: Radioligand binding (saturation and competition), WT 5-HT1B
[8] = Affinity (pKi ± SD) 5-HT1D, WT receptor, [^3H]5-CT competition, mean ± SD
[9] = read-out: 5-HT1A EMAX (%), WT receptor, normalized to basal (0%) and 10 μM 5-CT (100%)
[10] = WT receptor, normalized to basal (0%) and 10 μM 5-CT (100%)
[11] = read-out: 5-HT1D EMAX (%), WT receptor, normalized to basal (0%) and 10 μM 5-CT (100%)
[12] = read-out: 5-HT1B EMAX (%), WT receptor, normalized to basal (0%) and 10 μM 5-CT (100%)
[13] = Affinity (pKi ± SD) 5-HT1B, WT receptor, [^3H]5-CT competition, mean ± SD
[14] = Affinity (pKi ± SD) 5-HT1A, WT receptor, [^3H]5-CT competition, mean ± SD
[15] = WT receptor, [^3H]5-HT competition, mean ± SD, read-out: Affinity (pKi ± SD) 5-HT1F (converted)
[16] = read-out: Affinity (pKi ± SD) 5-HT1D (converted)
[17] = WT receptor, read-out: 5-HT1D pEC50 (converted)
[18] = WT receptor, read-out: 5-HT1A pEC50 (converted)
[19] = WT receptor, read-out: 5-HT1B pEC50 (converted)
[20] = read-out: Affinity (pKi ± SD) 5-HT1A (converted)
[21] = read-out: Affinity (pKi ± SD) 5-HT1B (converted)

T4 sequence (P28222 whole entry): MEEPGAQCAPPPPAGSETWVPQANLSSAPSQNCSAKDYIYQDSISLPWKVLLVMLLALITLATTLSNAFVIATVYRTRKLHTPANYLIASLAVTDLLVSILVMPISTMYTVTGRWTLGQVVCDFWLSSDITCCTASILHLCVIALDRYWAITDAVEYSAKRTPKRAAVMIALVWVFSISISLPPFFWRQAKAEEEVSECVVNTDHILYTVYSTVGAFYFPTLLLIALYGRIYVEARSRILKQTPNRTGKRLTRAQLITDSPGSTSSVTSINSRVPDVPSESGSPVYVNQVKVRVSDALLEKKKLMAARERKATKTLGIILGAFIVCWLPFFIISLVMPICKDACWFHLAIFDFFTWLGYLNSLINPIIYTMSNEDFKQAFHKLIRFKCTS
T1 sequence (P28221 whole entry): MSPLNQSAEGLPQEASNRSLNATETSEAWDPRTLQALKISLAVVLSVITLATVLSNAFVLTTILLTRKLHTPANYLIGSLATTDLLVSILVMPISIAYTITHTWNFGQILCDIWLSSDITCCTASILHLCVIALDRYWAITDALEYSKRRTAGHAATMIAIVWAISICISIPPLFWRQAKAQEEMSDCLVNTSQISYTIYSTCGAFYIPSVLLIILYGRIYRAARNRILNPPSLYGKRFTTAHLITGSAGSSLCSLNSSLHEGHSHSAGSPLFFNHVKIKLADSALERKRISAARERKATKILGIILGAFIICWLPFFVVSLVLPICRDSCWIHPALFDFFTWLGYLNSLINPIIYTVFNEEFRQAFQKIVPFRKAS

CN(C)[C@H]1CCc2c(cccc2-c2ccccc2)C1 [(S)-5-PAT]
Ki [1, 8]: 0.661 nM
Ki [2]: 6760 nM
EC50 ([3]; 5-HT1A pEC50, WT receptor): 70.8 nM
Emax [3, 9]: > 90%
5-HT1A EMAX (%) [3, 10]: 100 ± 2%
EC50 ([4]; 5-HT1D pEC50, WT receptor): 0.741 nM
Emax [4, 11]: > 90%
5-HT1D EMAX (%) [4, 10]: 97 ± 2%
more potent at the 5-HT1D receptor compared to 5-HT1A and 5-HT1B receptors ([4]; cAMP potency ratio): over 10 fold
EC50 ([5]; 5-HT1B pEC50, WT receptor): 14.5 nM
Emax [5, 12]: ~30%
5-HT1B EMAX (%) [5, 10]: 28 ± 3%
Affinity (pKi ± SD) 5-HT1A ([6]; WT receptor, [^3H]5-CT competition, mean ± SD): 8.20 ± 0.04
Ki [7, 13]: 10.2 nM

CCCN(CCC)[C@H]1CCc2cccc(O)c2C1 [(S)-8-OH-DPAT, 8-hydroxy-N,N-dipropyl-1,2,3,4-tetrahydronaphthalen-2-amine, reference compound]
Ki [2]: > 10000 nM
5-HT1A EMAX (%) [3, 10]: 70 ± 3%
Emax [4, 11]: 94 ± 2%
Emax [5, 12]: 85 ± 3%

CN(C)[C@H]1CCc2c(cccc2-c2ccccc2Cl)C1 [(S)-CPT]
Ki [1, 8]: 0.447 nM
Ki [2]: > 10000 nM
EC50 ([3]; 5-HT1A pEC50, WT receptor): 43.7 nM
Emax [3, 9]: 91 ± 2%
EC50 ([4]; 5-HT1D pEC50, WT receptor): 2.24 nM
Emax [4, 11]: 101 ± 1%
EC50 ([5]; 5-HT1B pEC50, WT receptor): 0.347 nM
Emax [5, 12]: > 90%
5-HT1B EMAX (%) [5, 10]: 100 ± 1%
Ki [6, 14]: 5.75 nM
Ki [7, 13]: 0.891 nM

CCCN(CCC)[C@H]1CCc2c(cccc2-c2ccccc2Cl)C1 [(S)-DCPT]
Ki [1, 8]: 0.562 nM
Ki [2]: 7590 nM
EC50 ([3]; 5-HT1A pEC50, WT receptor): 26.3 nM
Emax [3, 9]: 92 ± 4%
EC50 ([4]; 5-HT1D pEC50, WT receptor): 2.4 nM
Emax [4, 11]: 101 ± 2%
EC50 ([5]; 5-HT1B pEC50, WT receptor): 0.288 nM
Emax [5, 12]: > 90%
5-HT1B EMAX (%) [5, 10]: 103 ± 2%
Ki [6, 14]: 1.41 nM
Ki [7, 13]: 0.398 nM

CCCN(CCC)[C@H]1CCc2c(cccc2-c2ccccc2F)C1 [(S)-DFPT]
Ki [1, 8]: 0.155 nM
Ki [2]: 8510 nM
EC50 ([3]; 5-HT1A pEC50, WT receptor): 12.6 nM
Emax [3, 9]: 100 ± 2%
EC50 ([4]; 5-HT1D pEC50, WT receptor): 1.17 nM
Emax [4, 11]: 99 ± 2%
EC50 ([5]; 5-HT1B pEC50, WT receptor): 1.23 nM
Emax [5, 12]: > 90%
5-HT1B EMAX (%) [5, 10]: 100 ± 2%
Ki [6, 14]: 1.45 nM
Ki [7, 13]: 2 nM

O=C1CCc2ccc(OCCCCN3CCN(c4cccc(Cl)c4Cl)CC3)cc2N1 [Aripiprazole, aripiprazole, reference compound]
Ki [2, 15]: 7240 nM
Emax [3, 9]: 96 ± 2%
Emax [4, 11]: 96 ± 1%
Emax [5, 12]: 99 ± 3%

O=C1CC2(CCCC2)CC(=O)N1CCCCN1CCN(c2ncccn2)CC1 [Buspirone, buspirone, reference compound]
Ki [1, 16]: 617 nM
Ki [2, 15]: > 10000 nM
Emax ([3]; read-out: 5-HT1A EMAX (%)): 75 ± 1%
Emax ([4]; read-out: 5-HT1D EMAX (%)): 50 ± 3%
EC50 [4, 17]: > 10000 nM
Emax ([5]; read-out: 5-HT1B EMAX (%)): 45 ± 3%

CN(C)[C@H]1CCc2c(cccc2-c2cccc3c2oc2ccccc23)C1 [DBZ, (S)-5-(Dibenzo[b,d]furan-4-yl)-N,N-dimethyl-1,2,3,4-tetrahydronaphthalen-2-amine]
Ki [1, 16]: 4.79 nM
Emax ([3]; read-out: 5-HT1A EMAX (%)): 93 ± 4%
EC50 [3, 18]: 813 nM
Emax ([4]; read-out: 5-HT1D EMAX (%)): 99 ± 2%
EC50 [4, 17]: 4.37 nM
Emax ([5]; read-out: 5-HT1B EMAX (%)): 93 ± 2%
EC50 [5, 19]: 64.6 nM
Ki [6, 20]: 309 nM
Ki [7, 21]: 69.2 nM

CN(C)[C@H]1CCc2c(cccc2-c2c(F)cccc2F)C1 [Di-FPT, (S)-5-(2,6-Difluorophenyl)-N,N-dimethyl-1,2,3,4-tetrahydronaphthalen-2-amine]
Ki [1, 8]: 1.41 nM
EC50 ([3]; 5-HT1A pEC50, WT receptor): 1.74 nM
Emax [3, 9]: 98 ± 2%
EC50 ([4]; 5-HT1D pEC50, WT receptor): 1.66 nM
Emax [4, 11]: 100 ± 1%
EC50 ([5]; 5-HT1B pEC50, WT receptor): 2.09 nM
Emax [5, 12]: 100 ± 1%
Ki [6, 14]: 1.7 nM
Ki [7, 13]: 1.62 nM

Fc1ccccc1-c1cccc2c1CC[C@H](N1CCNCC1)C2 [FPIP, (S)-1-(5-(2-Fluorophenyl)-1,2,3,4-tetrahydronaphthalen-2-yl)piperazine]
Ki [1, 16]: 87.1 nM
Emax ([3]; read-out: 5-HT1A EMAX (%)): 95 ± 2%
EC50 [3, 18]: 1.2 nM
selectivity over 5-HT1B and 5-HT1D receptors ([3]; full efficacy 5-HT1A agonist): 100 fold
Emax ([4]; read-out: 5-HT1D EMAX (%)): 98 ± 2%
EC50 [4, 17]: 148 nM
Emax ([5]; read-out: 5-HT1B EMAX (%)): 99 ± 3%
EC50 [5, 19]: 126 nM
Ki [6, 20]: 0.977 nM
Ki [7, 21]: 107 nM

CN1CCC(c2c[nH]c3ccc(NC(=O)c4ccc(F)cc4)cc23)CC1 [LY334370, reference compound]
Ki [1, 16]: 2040 nM
Ki [2, 15]: 8.32 nM
Ki [6, 20]: 501 nM

Cc1ccc(CNCC2(F)CCN(C(=O)c3ccc(F)c(Cl)c3)CC2)nc1 [NLX-112, reference compound]
Ki [1, 8]: > 10000 nM
Ki [2]: > 10000 nM
Emax ([3]; read-out: 5-HT1A EMAX (%)): 100 ± 3%
EC50 ([4]; read-out: 5-HT1D pEC50 (converted), WT receptor): > 10000 nM
EC50 ([5]; read-out: 5-HT1B pEC50 (converted), WT receptor): > 10000 nM
Ki [7, 13]: > 10000 nM

Reference: publication PMC10797628
